# Target: Gag-Pol polyprotein (Human immunodeficiency virus type 1 group M subtype B (isolate HXB2), UniProt P04585)
# Test: HIV-1 RT Colorimetric Assay
# Experimental: The reaction mixture was set with template primer complex, RT enzyme and dNTPs in a lysis buffer with or without inhibitors. The reaction mixture was incubated at 37 °C for 1 h and then transferred to streptavidin-coated microtitre plate (MTP). The biotin-labeled dNTPs that were incorporated in the template due to activity ofRT, bound to streptavidin. The unbound dNTPs were washed using wash buffer and anti-DIG-POD was added to the MTP. The DIGlabeled dNTPs incorporated in the template were bound to an anti-DIG-POD antibody. The unbound anti-DIG-POD was washed again with washing buffer and the peroxide substrate (ABST) was added to the MTP. A colored reaction product was produced during the cleavage of the substrate catalyzed by a peroxide enzyme. The absorbance of the sample was determined as an optical density (OD) at 405 nm using a micro titer plate ELISA reader.
row,SMILES,IC50
1,"COc1ccc2c(c1)CCCN2CCC(=O)N1CCN(Cc2ccccc2)CC1 [1-(4-benzylpiperazin-1-yl)-3-(6-methoxy-3,4-dihydroquinolin-1(2H)-yl)propan-1-one (6m)]",> 100 µM
2,"COc1ccc2c(c1)CCCN2CCC(=O)N1CCN(c2ccc([N+](=O)[O-])cc2)CC1 [3-(6-methoxy-3,4-dihydroquinolin-1(2H)-yl)-1-(4-(4-nitrophenyl)piperazin-1-yl)propan-1-one (6l)]",82.7 µM
3,"COc1cccc(N2CCN(C(=O)CCN3CCCc4cc(OC)ccc43)CC2)c1 [3-(6-methoxy-3,4-dihydroquinolin-1(2H)-yl)-1-(4-(3-methoxyphenyl)piperazin-1-yl)propan-1-one (6e)]",58.2 µM
4,"COc1ccc2c(c1)CCCN2CCC(=O)N1CCN(c2ccccc2OC)CC1 [3-(6-methoxy-3,4-dihydroquinolin-1(2H)-yl)-1-(4-(2-methoxyphenyl)piperazin-1-yl)propan-1-one (6d)]",52.8 µM
5,"COc1ccc(N2CCN(C(=O)CCN3CCCc4cc(OC)ccc43)CC2)cc1 [3-(6-methoxy-3,4-dihydroquinolin-1(2H)-yl)-1-(4-(4-methoxyphenyl)piperazin-1-yl)propan-1-one (6f)]",> 100 µM
6,"COc1ccc2c(c1)CCCN2CCC(=O)N1CCN(c2ccccn2)CC1 [3-(6-methoxy-3,4-dihydroquinolin-1(2H)-yl)-1-(4-(pyridin-2-yl)piperazin-1-yl)propan-1-one (6n)]",48.6 µM
7,"COc1ccc2c(c1)CCCN2CCC(=O)N1CCN(c2ccc(F)cc2)CC1 [1-(4-(4-fluorophenyl)piperazin-1-yl)-3-(6-methoxy-3,4-dihydroquinolin-1(2H)-yl)propan-1-one (6h)]",78.5 µM

# The remaining molecules from weak to strong by IC50, led by results:
row,IC50,SMILES
1,47.5 µM,"COc1ccc2c(c1)CCCN2CCC(=O)N1CCN(c2ccccc2F)CC1 [1-(4-(2-fluorophenyl)piperazin-1-yl)-3-(6-methoxy-3,4-dihydroquinolin-1(2H)-yl)propan-1-one (6g)]"
2,32.9 µM,"COc1ccc2c(c1)CCCN2CCC(=O)N1CCN(c2ccccc2Cl)CC1 [1-(4-(2-chlorophenyl)piperazin-1-yl)-3-(6-methoxy-3,4-dihydroquinolin-1(2H)-yl)propan-1-one (6i)]"
3,28.5 µM,"COc1ccc2c(c1)CCCN2CCC(=O)N1CCN(c2ccc(C)cc2)CC1 [3-(6-methoxy-3,4-dihydroquinolin-1(2H)-yl)-1-(4-p-tolylpiperazin-1-yl)propan-1-one (6c)]"
4,24.9 µM,"COc1ccc2c(c1)CCCN2CCC(=O)N1CCN(c2ccc(Cl)cc2)CC1 [1-(4-(4-chlorophenyl)piperazin-1-yl)-3-(6-methoxy-3,4-dihydroquinolin-1(2H)-yl)propan-1-one (6k)]"
5,24.3 µM,"COc1ccc2c(c1)CCCN2CCC(=O)N1CCN(c2ccccc2)CC1 [3-(6-methoxy-3,4-dihydroquinolin-1(2H)-yl)-1-(4-phenylpiperazin-1-yl)propan-1-one (6a)]"
6,18.6 µM,"COc1ccc2c(c1)CCCN2CCC(=O)N1CCN(c2cccc(Cl)c2)CC1 [1-(4-(3-chlorophenyl)piperazin-1-yl)-3-(6-methoxy-3,4-dihydroquinolin-1(2H)-yl)propan-1-one (6j)]"
7,14.5 µM,"COc1ccc2c(c1)CCCN2CCC(=O)N1CCN(c2cccc(Cl)c2Cl)CC1 [1-(4-(2,3-dichlorophenyl)piperazin-1-yl)-3-(6-methoxy-3,4-dihydroquinolin-1(2H)-yl)propan-1-one (6o)]"
8,12.5 µM,"COc1ccc2c(c1)CCCN2CCC(=O)N1CCN(c2ccccc2C)CC1 [3-(6-methoxy-3,4-dihydroquinolin-1(2H)-yl)-1-(4-o-tolylpiperazin-1-yl)propan-1-one (6b)]"
